Experimental data as given in patent US8796275B2, “Anti-malarial compounds” (The Trustees of the University of Pennsylvania, priority 2008, dated 2014).
Read-outs that look alike come from different tables or passages of the source.

Tests used:
[1] = test system: 3D7 strain of P. falciparum; assay: High throughput quantitative parasite growth assay, luciferase expressing parasites; assay type: cell-based, Plasmodium falciparum; conditions: luciferase readout, approximately 60 hours growth
Description: Numerous compounds were initially screened using a high throughput quantitative parasite growth assay that makes use of a strain of parasites expressing a cytoplasmic firefly luciferase (obtained from Dr. Kirk Deitsch, Cornell Medical College). These parasites were transfected with a vector containing the firefly luciferase gene using the malarial HRPII promoter. To grow parasites, culture dishes ranging from 96 well plates to 30 ml dishes were used. […] Parasites were cultured in human RBCs under an atmosphere of 5% O2/7% CO2/88% N2 in RPMI 1640 medium supplemented with 25 mM Hepes, 30 mg/L hypoxanthine, 0.225% (w/v) NaHCO3 and 0.5% (w/v) Albumax II (Life Technologies, Grand Island, N.Y.).
A standard luminescent readout was used to measure the growth of parasites. Parasites were grown under normal conditions, lysed in the presence of the luminescence reagents (Bright Glo, Promega) and then measured. To initially test for growth, luciferase expressing parasites were synchronized using serial sorbitol treatments and then parasitemia, the percentage of RBCS infected with parasites, was adjusted using uninfected RBCs. 100 μl of total media was used in a 96 well format. Parasitized RBCs were incubated in 96 well plates at 37° C. and gassed with 5% CO2, 5% O2, 90% N2. Parasites were allowed to grow for approximately 60 hours, until they successfully divided, ruptured and reinvaded new RBCs. At 10-15 hours post invasion, the cells were lysed, and luciferase levels were measured using an Analyst HT luminometer (Molecular Devices).

[2] = test system: food vacuole; assay: Food vacuole integrity, parasites expressing plasmepsin II-YFP, fluorescence microscopy; assay type: cell-based, Plasmodium falciparum; conditions: plasmepsin II-YFP marker
[3] = test system: P. falciparum DD2; assay: microbe, parasite or virus in culture; assay type: cell-based, Plasmodium falciparum; conditions: for IC50: Plasmodium falciparum, DD2, read-out: IC50 (DD2)
From the text: (§1) Flow cytometry was used for quantitation of parasitemia using SYOX Green on an LSRII.

[4] = test system: P. falciparum 3D7; assay: Cultures of P. falciparum 3D7, flow cytometry quantitation of parasitemia; assay type: cell-based; conditions: Plasmodium falciparum
From the text: as §1

[5] = test system: uninfected red blood cells
[6] = test system: human HepG2 cells
[7] = test system: P. falciparum; assay: Anti-parasitic activity in vitro, human red blood cell assay; assay type: cell-based, Plasmodium falciparum
Description: Anti-parasitic activities were measured in vitro using a human red blood cell assay. A single P. falciparum organism typically infects an erythrocyte and produces 24 progeny within 48 hours following infection. The progeny are released and rapidly infect neighboring red blood cells. […] Observations were also made during the 48 hour incubation period to assess the susceptibility of the parasite during lifecycle stages inside and outside the host erythrocyte. […] One goal of targeting parasite membranes, rather than proteins or metabolic pathways, represents a highly innovative and novel strategy for treating parasitic diseases and distinguishes this approach from most others in this field.

[8] = Plasmodium falciparum, 3D7, 60 h

Row | Structure (SMILES) | IC50 [1, 8] | also measured
1 | C[C@H]1[C@H](OC(=O)CCC(=O)O)O[C@@H]2O[C@@]3(C)CC[C@H]4[C@H](C)CC[C@@H]1[C@@]24OO3 [Artesunate, artesunate, reference compound] | 9 nM | –
2 | NCCc1cccc(-c2ccc3sc4ccc(-c5cccc(CCN)c5)cc4c3c2)c1 [Compound 106] | 1150 nM | disruption of food vacuoles [2]: disrupted food vacuoles; effectiveness in strain DD2 ([3]; DD2 strain): effective; IC50 [3]: 100 nM; IC50 ([4]; 3D7 strain, read-out: IC50 (3D7)): 150 nM; hemolytic [5]: Neither compound, however, was hemolytic; cytotoxicity [6]: 40 to 50 µM
3 | c1cc(-c2ccc3sc4ccc(-c5ccnc(N6CCNCC6)c5)cc4c3c2)cc(N2CCNCC2)n1 [Compound 110] | 584 nM | –
4 | NCCCc1cccc(-c2ccc3sc4ccc(-c5cccc(CCCN)c5)cc4c3c2)c1 [Compound 116] | 318 nM | IC50 ([7]; Plasmodium falciparum, Erythrocyte, minimum concentration resulting in 50% killing, 48 hour incubation): 50 nM; IC50 (μM) ([7]; minimum concentration resulting in 50% killing, 48 hour incubation): sub-μM; IC100 ([7]; minimum concentration resulting in 100% killing, 48 hour incubation): 0.850 µM; % Kill @ 10 μM ([7]; single concentration 10 μM): 100%
5 | c1cc(N2CCNCC2)ncc1-c1ccc2sc3ccc(-c4ccc(N5CCNCC5)nc4)cc3c2c1 [Compound 117] | 301 nM | –
6 | NCc1cccc(-c2ccc3[nH]c4ccc(-c5cccc(CN)c5)cc4c3c2)c1 [Compound 118] | 364 nM | –
7 | NCCCc1cccc(-c2ccc3[nH]c4ccc(-c5cccc(CCCN)c5)cc4c3c2)c1 [Compound 119] | 1860 nM | –
8 | NCCCc1cccc(-c2ccc3oc4ccc(-c5cccc(CCCN)c5)cc4c3c2)c1 [Compound 120] | 604 nM | –
9 | N=C(N)NCCCCC(=O)Nc1cc(Br)cc(NC(=O)c2cc(C(=O)Nc3cc(Br)cc(NC(=O)CCCCNC(=N)N)c3SCCNC=O)ncn2)c1SCCNC=O [Compound 125] | 286 nM | –
10 | NCCCc1ccc(-c2ccc3sc4ccc(-c5ccc(CCCN)cc5)cc4c3c2)cc1 [Compound 130] | – | IC50 [1]: 2560 nM
11 | NCc1cccc(-c2ccc3sc4ccc(-c5cccc(CN)c5)cc4c3c2)c1 [Compound 131] | – | IC50 [1]: 235 nM
12 | c1cc(N2CCNCC2)ccc1-c1ccc2sc3ccc(-c4ccc(N5CCNCC5)cc4)cc3c2c1 [Compound 132] | 236 nM | –
13 | NCCCc1cccc(-c2ccc3c(c2)-c2cc(-c4cccc(CCCN)c4)ccc2S3(=O)=O)c1 [Compound 133] | 2030 nM | –
14 | NCCc1cccc(-c2ccc3c(c2)c2cc(-c4cccc(CCN)c4)ccc2[s+]3[O-])c1 [Compound 134] | 2440 nM | –
15 | COc1ccc(CCN)cc1-c1ccc2sc3ccc(-c4cc(CCN)ccc4OC)cc3c2c1 [Compound 135] | 108 nM | –
16 | NCCN1CC=C(c2ccc3sc4ccc(C5=CCN(CCN)CC5)cc4c3c2)CC1 [Compound 136] | 958 nM | –
17 | CCn1c2ccc(-c3cccc(CCCN)c3)cc2c2cc(-c3cccc(CCCN)c3)ccc21 [Compound 137] | 604 nM | –
18 | C1=C(c2ccc3sc4ccc(C5=CCNCC5)cc4c3c2)CCNC1 [Compound 138] | 213 nM | –
19 | N=C(N)NCCCc1cccc(-c2ccc3sc4ccc(-c5cccc(CCCNC(=N)N)c5)cc4c3c2)c1 [Compound 139] | 1170 nM | –
20 | NCCNCc1cncc(-c2ccc3sc4ccc(-c5cncc(CNCCN)c5)cc4c3c2)c1 [Compound 140] | 1670 nM | –
21 | NCCCc1cccc(-c2ccc3c(c2)-c2cc(-c4cccc(CCCN)c4)ccc2S3(=O)=O)c1 [Compound 141] | – | IC50 [1]: 1340 nM
22 | CCN(CC)CCCC(C)Nc1ccnc2cc(Cl)ccc12 (stereo not shown) [chloroquine, reference compound] | – | resistance of DD2 strain relative to 3D7 strain ([3]; DD2 vs 3D7): 4 times; IC50 [3]: 80 nM; IC50 ([4]; 3D7, read-out: IC50 (3D7)): 20 nM
